The numbers were not newly measured in patent US10308663B2, “Inhibitors of PTP4A3 for the treatment of cancer” (University of Virginia Patent Foundation, priority 2015, dated 2019), which cites them from elsewhere.

The subject of this data set is YOP(H?). The settings on record: DiFMUP as a substrate; reported by Hoeger et al.; cited from earlier work.

The IC50 is the concentration that gives 50% inhibition. For the compound `Nc1c[nH]c(=O)c2cc(-c3ccccc3)sc12` [Thienopyridone (5), 7-amino-2-phenylthieno[3,2-c]pyridin-4(5H)-one], the 50% inhibitory concentration (IC50) is 61 µM.
